Assay results reported in the NIST ThermoML archive (doi:10.1021/je049950g).

Details: Liquid

CC1COC(=O)O1 (stereo not given) [4-methyl-1,3-dioxolan-2-one]
Details	vapor or sublimation pressure [kPa]
348.15 K	0.2509
353.15 K	0.3277
358.15 K	0.4377
363.15 K	0.5553
368.15 K	0.7206
373.15 K	0.9231
378.15 K	1.167
388.15 K	1.856
393.15 K	2.284
398.15 K	2.826
403.15 K	3.482
408.15 K	4.265
413.15 K	5.153
418.15 K	6.226
423.15 K	7.454
428.15 K	8.959
433.15 K	10.78
438.15 K	12.69
443.15 K	14.81
448.15 K	17.81
453.15 K	20.5
458.15 K	24.08
463.15 K	27.96
468.15 K	33.01
473.15 K	37.77

CC(=O)N(C)C [N,N-dimethylethanamide]
Details	vapor or sublimation pressure [kPa]
298.15 K	0.2936
303.15 K	0.3925
308.15 K	0.5179
313.15 K	0.6782
318.15 K	0.8946
323.15 K	1.163
328.15 K	1.526
333.15 K	1.983
338.15 K	2.556
343.15 K	3.27
348.15 K	4.135
353.15 K	5.192
363.15 K	7.995
368.15 K	9.806
373.15 K	11.98
378.15 K	14.52
383.15 K	17.5
388.15 K	21.01
393.15 K	25.03
398.15 K	29.69
403.15 K	35.02
408.15 K	41.11
413.15 K	48.06
418.15 K	55.91
423.15 K	64.78
